This assay has as its system patients with Parkinson's disease and “OFF” episodes. Nature of the assay: Post hoc analysis of Phase 3 study: motor responses to apomorphine sublingual film compared with levodopa. The assay is classed as in vivo, human. The text has this:
Patients described in Table 9 were enrolled in a study. At screening, patients attended morning in-office visits in the “OFF” state and received their usual morning dose of levodopa without adjunctive PD medications and were both self- and investigator-assessed for a FULL “ON” response (levodopa challenge; FIG. 9). An “OFF” state was accomplished by withholding levodopa and any other adjunctive PD medications after midnight the night before each morning in-office visit.

The text below walks through data of patent US20210315882A1, “METHODS OF TREATING A PATIENT HAVING PARKINSON'S DISEASE” (Sunovion Pharmaceuticals Inc., priority 2019, published 2021).

`N[C@@H](Cc1ccc(O)c(O)c1)C(=O)O` [levodopa]: the “Responder rate (≥30% decrease in MDS-UPDRS III score from predose)” value runs as follows: (15 minutes postdose) 18%; (30 minutes postdose) 50%. The “time of mean peak response across the time points measured” value (MDS-UPDRS III score) was found to be 95 min. In addition, the “magnitude of observed peak response in MDS-UPDRS III score (mean±SE)” value (across the time points measured) is −27.9±1.20. Besides, where the note is “open-label, film at dose giving FULL “ON”, levodopa usual morning dose, n = 109”, the “change in MDS-UPDRS III score from predose at 15 minutes postdose (mean±SE)” value is listed as −6.0±0.72.
